In data set [1] the test system is P. aeruginosa strain PA14. As to the kind of experiment: MIC assay (broth microdilution) against P. aeruginosa PA14. In kind it is cell-based, Pseudomonas aeruginosa. Particulars: P. aeruginosa PA14, 24 h, 37° C. From the text: FIGS. 2A-2E. Design, physicochemical features and activity of Pol-CP—NH2 and Ala-scan analogs. FIG. 2A. Theoretical physicochemical properties of interest of the wild type and Ala-scan analogs, where H denotes hydrophobicity, μH is the hydrophobic moment, q represents the net charge and P/N is the ratio of polar/non-polar residues in the sequence. Top to bottom, left to right the sequences correspond to SEQ ID NOs: 1-13. FIG. 2B. Schematic of the in vitro biological activity experimental design. Briefly, 10^4 bacterial cells and serially diluted peptides (0-128 μmol L^−1) were added to a 96-well plate and incubated at 37° C. One day after the exposure, the solution in each well was measured in a microplate reader (600 nm) to check inhibition of bacteria compared to the untreated controls and presented as heat maps of antimicrobial activities (μmol L^−1) against four bacteria strains: E. coli strain BL21, S. aureus strain ATCC12600 and P. aeruginosa strains PA01, and PA14. Assays were performed in triplicates. FIG. 2C. Graph correlating MIC (μmol L^−1) averages vs H and (FIG. 2D) MIC (μmol L^−1) averages vs μH, where dots […] the dashed line show peptides with higher activity compared to the wild type, in which one can observe ranges of optimal activity in determined intervals of H and μH values. FIG. 2E. […]

The subject of data set [2] is HEK293 human embryonic kidney cells. Put plainly: Cytotoxicity assay (MTS). The note with it: for toxicity at 64 μmol L^−1: assay not stated; for Cytotoxicity: HEK293, 48 h, MTS, peptides 0-64 μmol L^−1. It is filed as cell-based. On the procedure: FIGS. 7A-7B. Cytotoxicity of engineered peptides. FIG. 7A. Schematic of the experimental design for cytotoxicity assays of Pol-CP—NH2 and derivatives against HEK293 human embryonic kidney cells. Briefly, cells were cultured in DMEM medium supplemented with FBS and antibiotics at 37° C. and 5% CO2. FIG. 7B. Results obtained by seeding HEK293 50,000 cells and incubating with peptides' solution (0-64 μmol L^−1) at 37° C. for 48 h. Cell viability was measured by MTS assay. All experiments were performed in triplicate.
Cytotoxicity assays. Human embryonic kidney 293 (HEK 293) cells were cultured in Dulbecco's Modified Eagle Medium (DMEM) supplemented with 10% Fetal Bovine Serum (FBS) and 1% penicillin-streptomycin at 37° C. in 5% CO2. The day before treatment, 50,000 HEK 293 cells were seeded into each well in 96-well plates. The peptides were added at concentrations ranging from 0 to 64 ? mol L^−1 and 48 h after exposure, cell viability was measured by means of MTS (dimethylthiazol-carboxymethoxyphenyl-sulfophenyl-tetrazolium) assay. Experiments were performed in triplicate for each condition.

A further data set concerns human red blood cells. Put plainly: Hemolytic activity assay. In kind it is cell-based. The note with it: for HC50: concentration needed for 50% hemolysis, human RBC in PBS, room temperature, 1 h, 0.1-100 μmol L^−1; for hemolytic activity: range of concentrations evaluated 0-100 μmol L^−1. On the procedure: FIGS. 6A-6B. Hemolysis and resistance to protease-mediated degradation of engineered peptides. FIG. 6A. Schematic of experimental design and hemolytic assay results of Pol-CP—NH2 and derivatives, where hemolytic activity was evaluated by incubating the peptides (0.1-100 μmol L^−1) with human red blood cells in PBS at room temperature for 1 h. Experiments were performed in triplicate, (*p<0.05). FIG. 6B. Resistance to degradation of Pol-CP—NH2 and analogs exposed to fetal bovine serum (FBS) proteases for 6 h. Experiments were done in triplicate.
Hemolytic Activity Assays. Human erythrocytes were collected and washed three times by centrifugation at 300×g with PBS (pH 7.4). After the last centrifugation, the cells were resuspended in PBS pH 7.4. Aliquots at a concentration of 0.1 to 100 ? mol L^−1 of the peptides were added to the 96-well microplate, where in each well containing 50 ? L of a suspension of erythrocytes to 0.4% in a phosphate saline buffer (10 mmol L^−1 Na2HPO4, 1.8 mmol L^−1 […], pH 7.4, 137 mmol L^−1 NaCl and 2.7 mmol L^−1KCl). After that, the samples were incubated at room temperature for 1 h. Hemolysis was determined by reading absorbance at 405 nm of each well in a bed of plates. 1% SDS in PBS solution was used as positive control (Shalel S. et al., J. Colloid Interface Sci. 252, 66-76 (2002); Love L. J. Cell. Comp. Physiol. 36, 133-148 (1950)) and as negative control was used PBS only. MHC was defined as the maximal non-hemolytic concentration.

In general, MIC refers to the least concentration at which growth counts as inhibited. Read a high MIC as weaker potency. In general, HC50 refers to the concentration that lyses half of the red blood cells. Low readings indicate more damage to red cells, high ones less damage to red cells. In data set [1], “H-ILGTILGLLKSL-NH2 [WT, ILGTILGLLKSL-NH2, reference compound]” displayed an MIC of 64.0 µM. In addition, in data set [2], the “toxicity at 64 μmol L^−1” value was “toxic” and the Cytotoxicity came to 32.0 µmol/L. This substance also showed a Cytotoxicity in data set [2] (listed as wild-type peptide) of 32 µmol/L. Moreover, in the data set on human red blood cells, the HC50 was found to be 50.0 µmol/L and the “hemolytic activity” value is on record as “hemolytic”.
Take “H-ILGTILKLLKSL-NH2 [Peptide 16, ILGTILKLLKSL-NH2]”: in data set [2], the “toxicity at 64 μmol L^−1” value was “toxic” and the Cytotoxicity was determined as 16.0 µmol/L. For the same substance, the Cytotoxicity in data set [2] (listed as [Lys]^7-Pol-CP—NH2) worked out at 16 µmol/L. For the same substance, the “cytotoxic concentration relative to MIC against P. aeruginosa” value in data set [2] (HEK293 cytotoxicity vs MIC) is on record as “two- to four-fold higher”. In the data set on human red blood cells, the HC50 is 12.5 µmol/L and the “hemolytic activity” value is recorded as “hemolytic”. In addition, the “hemolytic activity (concentration at which hemolytic)” value in the data set with human red blood cells (human red blood cells, range evaluated 0-100 μmol L^−1) turned out to be 12.5 µmol/L.

(Values after US20210347823A1, “METHODS OF PHYSICOCHEMICAL-GUIDED PEPTIDE DESIGN AND NOVEL PEPTIDES DERIVED THEREFROM” (Massachusetts Institute of Technology, priority 2018, published 2021).)
